According to ChEMBL document CHEMBL4414609, “High-Affinity Alkynyl Bisubstrate Inhibitors of Nicotinamide N-Methyltransferase (NNMT)” (J Med Chem, 2019):

Legend:
[1] = Permeability across apical to basolateral side in human Caco2 cells after 60 mins by HPLC-MS/MS analysis; assay type: ADME, cell-based; details: caco-2, 1 h
[2] = target: T1, TPMT (thiopurine S-methyltransferase) (Homo sapiens, UniProt P51580); experiment: Inhibition of human TPMT expressed in Escherichia coli assessed as reduction in SAH level at 10 uM using 6-mercaptopurine as substrate in presence of SAM incubated for 30 mins by LC-MS/MS analysis relative to control; details: recombinant human TPMT expressed in Escherichia coli, probe 6-mercaptopurine
T1 sequence (P51580 whole entry): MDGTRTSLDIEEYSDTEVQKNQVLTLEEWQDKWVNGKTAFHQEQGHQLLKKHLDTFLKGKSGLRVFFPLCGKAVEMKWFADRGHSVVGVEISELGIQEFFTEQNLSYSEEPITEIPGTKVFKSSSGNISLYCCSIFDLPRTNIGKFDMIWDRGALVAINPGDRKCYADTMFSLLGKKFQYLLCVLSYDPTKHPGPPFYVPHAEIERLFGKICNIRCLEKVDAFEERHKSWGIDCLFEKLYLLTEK

[3] = target: T2, GNMT (glycine N-methyltransferase) (Homo sapiens, UniProt Q14749); experiment: Inhibition of human GNMT expressed in Escherichia coli at 10 uM assessed as reduction in SAH level using glycine as substrate in presence of SAM incubated for 30 mins by LC-MS/MS analysis relative to control; details: recombinant human GNMT expressed in Escherichia coli, probe glycine
T2 sequence (Q14749 whole entry): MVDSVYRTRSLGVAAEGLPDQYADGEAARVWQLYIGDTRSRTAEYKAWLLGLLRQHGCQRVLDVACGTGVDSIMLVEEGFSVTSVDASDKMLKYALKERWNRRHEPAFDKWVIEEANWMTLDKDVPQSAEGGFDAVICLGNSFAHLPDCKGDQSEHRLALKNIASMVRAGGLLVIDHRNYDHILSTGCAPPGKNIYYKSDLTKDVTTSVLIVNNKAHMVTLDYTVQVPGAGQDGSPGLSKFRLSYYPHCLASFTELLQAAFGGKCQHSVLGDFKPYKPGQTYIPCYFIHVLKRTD

[4] = target: HNMT (histamine N-methyltransferase) (Homo sapiens, UniProt P50135); experiment: Inhibition of human HNMT expressed in Escherichia coli at 10 uM assessed as reduction in SAH level using histamine as substrate in presence of SAM incubated for 15 mins by LC-MS/MS analysis relative to control; details: recombinant human HNMT expressed in Escherichia coli, probe histamine
[5] = target: T3, PNMT (phenylethanolamine N-methyltransferase) (Homo sapiens, UniProt P11086); experiment: Inhibition of human PNMT expressed in Escherichia coli at 10 uM assessed as reduction in SAH level using DL-normetanephrine as substrate in presence of SAM incubated for 45 mins by LC-MS/MS analysis relative to control; details: recombinant human PNMT expressed in Escherichia coli, probe DL-normetanephrine
T3 sequence (P11086 whole entry): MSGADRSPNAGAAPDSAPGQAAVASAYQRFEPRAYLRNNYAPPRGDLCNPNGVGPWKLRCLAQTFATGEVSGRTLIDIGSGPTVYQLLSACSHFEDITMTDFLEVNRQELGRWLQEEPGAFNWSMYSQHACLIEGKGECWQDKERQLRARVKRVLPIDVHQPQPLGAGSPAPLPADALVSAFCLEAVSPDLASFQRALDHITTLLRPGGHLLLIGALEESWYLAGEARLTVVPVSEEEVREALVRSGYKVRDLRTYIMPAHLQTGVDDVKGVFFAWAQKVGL

[6] = target: T1, TPMT (thiopurine S-methyltransferase); experiment: Inhibition of human TPMT expressed in Escherichia coli assessed as reduction in SAH level at 1 uM using 6-mercaptopurine as substrate in presence of SAM incubated for 30 mins by LC-MS/MS analysis relative to control; details: recombinant human TPMT expressed in Escherichia coli, probe 6-mercaptopurine
[7] = target: T4, Thiopurine S-methyltransferase (Homo sapiens, UniProt P51580); experiment: Inhibition of human TPMT expressed in Escherichia coli assessed as reduction in SAH level using 6-mercaptopurine as substrate in presence of SAM incubated for 30 mins by LC-MS/MS analysis
T4 sequence (P51580 whole entry): T1 sequence (P51580 whole entry)

[8] = target: T5, COMT (catechol O-methyltransferase) (Homo sapiens, UniProt P21964); experiment: Inhibition of human COMT expressed in Escherichia coli at 10 uM assessed as reduction in SAH level using pyrocatechol as substrate in presence of SAM incubated for 15 mins by LC-MS/MS analysis relative to control; details: recombinant human COMT expressed in Escherichia coli, probe pyrocatechol
T5 sequence (P21964 whole entry): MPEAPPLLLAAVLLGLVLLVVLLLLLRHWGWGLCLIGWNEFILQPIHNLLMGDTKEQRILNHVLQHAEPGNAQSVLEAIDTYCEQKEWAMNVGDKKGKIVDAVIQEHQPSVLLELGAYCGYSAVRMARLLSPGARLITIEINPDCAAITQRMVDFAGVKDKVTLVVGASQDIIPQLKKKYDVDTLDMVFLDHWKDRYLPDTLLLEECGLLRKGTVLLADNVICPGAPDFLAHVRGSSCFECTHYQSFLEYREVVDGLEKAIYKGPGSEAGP

HNMT (histamine N-methyltransferase), sequence (P50135 whole entry): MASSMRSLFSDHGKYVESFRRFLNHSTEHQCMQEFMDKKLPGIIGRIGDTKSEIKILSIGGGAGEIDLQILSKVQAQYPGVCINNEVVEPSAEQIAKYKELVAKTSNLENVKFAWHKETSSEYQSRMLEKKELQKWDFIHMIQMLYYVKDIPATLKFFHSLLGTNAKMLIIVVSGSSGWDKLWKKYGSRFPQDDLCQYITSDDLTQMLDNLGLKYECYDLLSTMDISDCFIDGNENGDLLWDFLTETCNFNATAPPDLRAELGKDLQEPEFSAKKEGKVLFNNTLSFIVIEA

Compound: NC(=O)c1cccc(C#C[C@@H](CC[C@H](N)C(=O)O)C[C@H]2O[C@@H](n3cnc4c(N)ncnc43)[C@H](O)[C@@H]2O)c1
- permeability [1]: Impermeable
- inhibition at 0.5 h, 10 µM [2]: 76%
- inhibition at 0.5 h, 10 µM [3]: 23%
- inhibition at 0.25 h, 10 µM [4]: 2%
- inhibition at 0.75 h, 10 µM [5]: 26%
- inhibition at 0.5 h, 1 µM [6]: 51%
- IC50 [7]: 1000 nM
- inhibition at 0.25 h, 10 µM [8]: 43%
